These results are taken from paper PMC9286316, “Importance of the Cyclic Cystine Knot Structural Motif for Immunosuppressive Effects of Cyclotides” (ACS Chemical Biology, 2021).

The assay relates to human PBMCs. In words: Lymphocyte proliferation assay (CFSE, anti-CD3/anti-CD28 stimulated PBMC, flow cytometry). In kind it is cell-based. Conditions: 72 h; for antiproliferative activity (Figure 2B): tested concentration range 1–100 μg/mL peptide, three biological replicates. Here is the method: Blood of healthy donors was obtained from the Blood Transfusion Centre (University Medical Centre Freiburg, Freiburg Germany), and all experiments conducted on human material were approved by the ethics committee of the University Freiburg (55/14). Venous blood was centrifuged to isolate peripheral blood mononuclear cells on a LymphoPrep gradient (density: 1.077 g/cm^3, 20 min, 500 × g, 20 °C; Progen, Heidelberg, Germany). PBMCs were collected and washed twice with phosphate buffer saline (PBS; GE Healthcare, München), and cell viability and concentration were determined using the trypan blue exclusion test. Cells were cultured in RPMI 1640 medium supplemented with 10% heat-inactivated fetal calf serum, 2 mM L-glutamine, 100 U/mL penicillin, and […] streptomycin (all from Life Technologies, Paisley, UK) and cultured at 37 °C in a humidified incubator with a 5% CO2/95% air atmosphere.
Harvested PBMC were washed twice in cold PBS and resuspended in PBS at a concentration of 5 × 10^6 cells per mL. Carboxyfluorescein diacetate succinimidyl ester (CFSE; 5 μM; Sigma-Aldrich, St. Louis, MO) staining was performed to determine T-cell proliferation. Cells were stained with CFSE and incubated for 10 min at 37 °C. The staining reaction was stopped by washing twice with complete growth medium. Afterward, stained cells were stimulated with anti-human CD3 (clone OKT3) and anti-human CD28 (clone 28.6) mAbs (each 100 ng/mL; both from eBioscience, Frankfurt, Germany) treated as indicated in the figure legends, with medium alone, cyclosporine A (CsA; 5 μg/mL, purity ≥99%, Sandimmun 50 mg/mL, Novartis Pharma, Basel, Switzerland), camptothecin (CPT; 300 μM; purity >98%; Tocris, Bristol, UK), or in the presence of the indicated concentrations of peptides for 72 h at 37 °C in a humidified incubator with a 5% CO2/95% air atmosphere. Cell division progress was analyzed by flow cytometric analysis using a FACS Calibur analyzer (BD Bioscience, Becton Dickinson, Franklin Lakes, NJ). Data were generated using FlowJo software. For further analysis of FACS raw data Microsoft Excel and SPSS software (IBM, Version 22.0, Armonk, USA) were applied. All bioactivity data are represented as mean ± standard deviation (SD) for the indicated number of independent experiments. Statistical significance was determined by a one-way ANOVA followed by Dunnett’s post hoc pairwise comparisons. The asterisks (*p < 0.05, **p < 0.01, ***p < 0.001) represent significant differences from the respective control.

With `CC(C)C[C@@H]1NC(=O)CNC(=O)[C@H](CC(N)=O)NC(=O)[C@H](CCCNC(=N)N)NC(=O)[C@H]([C@@H](C)O)NC(=O)[C@H](CSCC(N)=O)NC(=O)[C@H](C(C)C)NC(=O)[C@@H]2CCCN2C(=O)[C@H](Cc2c[nH]c3ccccc23)NC(=O)[C@H](CO)NC(=O)[C@H](CSCC(N)=O)NC(=O)[C@H](CCCCN)NC(=O)[C@H](CSCC(N)=O)NC(=O)CNC(=O)[C@@H]2CCCN2C(=O)[C@H]([C@@H](C)O)NC(=O)[C@H](CC(N)=O)NC(=O)[C@H](CSCC(N)=O)NC(=O)[C@H]([C@@H](C)O)NC(=O)CNC(=O)CNC(=O)[C@H](C(C)C)NC(=O)[C@H](CSCC(N)=O)NC(=O)[C@H]([C@@H](C)O)NC(=O)[C@H](CCC(=O)O)NC(=O)CNC(=O)[C@H](CSCC(N)=O)NC(=O)[C@H](C(C)C)NC(=O)[C@@H]2CCCN2C1=O` [T20K-Acm], the “antiproliferative activity (Figure 2B)” value is listed as “total loss of antiproliferative activity”.
The same measure, in the same setting: the value for `CCN1C(=O)CC(SC[C@@H]2NC(=O)CNC(=O)[C@@H]3CCCN3C(=O)[C@H]([C@@H](C)O)NC(=O)[C@H](CC(N)=O)NC(=O)[C@H](CSC3CC(=O)N(CC)C3=O)NC(=O)[C@H]([C@@H](C)O)NC(=O)CNC(=O)CNC(=O)[C@H](C(C)C)NC(=O)[C@H](CSC3CC(=O)N(CC)C3=O)NC(=O)[C@H]([C@@H](C)O)NC(=O)[C@H](CCC(=O)O)NC(=O)CNC(=O)[C@H](CSC3CC(=O)N(CC)C3=O)NC(=O)[C@H](C(C)C)NC(=O)[C@@H]3CCCN3C(=O)[C@H](CC(C)C)NC(=O)CNC(=O)[C@H](CC(N)=O)NC(=O)[C@H](CCCNC(=N)N)NC(=O)[C@H]([C@@H](C)O)NC(=O)[C@H](CSC3CC(=O)N(CC)C3=O)NC(=O)[C@H](C(C)C)NC(=O)[C@@H]3CCCN3C(=O)[C@H](Cc3c[nH]c4ccccc34)NC(=O)[C@H](CO)NC(=O)[C@H](CSC3CC(=O)N(CC)C3=O)NC(=O)[C@H](CCCCN)NC2=O)C1=O` (stereo partly shown) [T20K-Nem] was “total loss of antiproliferative activity”; that for `CSSC[C@@H]1NC(=O)CNC(=O)[C@@H]2CCCN2C(=O)[C@H]([C@@H](C)O)NC(=O)[C@H](CC(N)=O)NC(=O)[C@H](CSSC)NC(=O)[C@H]([C@@H](C)O)NC(=O)CNC(=O)CNC(=O)[C@H](C(C)C)NC(=O)[C@H](CSSC)NC(=O)[C@H]([C@@H](C)O)NC(=O)[C@H](CCC(=O)O)NC(=O)CNC(=O)[C@H](CSSC)NC(=O)[C@H](C(C)C)NC(=O)[C@@H]2CCCN2C(=O)[C@H](CC(C)C)NC(=O)CNC(=O)[C@H](CC(N)=O)NC(=O)[C@H](CCCNC(=N)N)NC(=O)[C@H]([C@@H](C)O)NC(=O)[C@H](CSSC)NC(=O)[C@H](C(C)C)NC(=O)[C@@H]2CCCN2C(=O)[C@H](Cc2c[nH]c3ccccc23)NC(=O)[C@H](CO)NC(=O)[C@H](CSSC)NC(=O)[C@H](CCCCN)NC1=O` [T20K-S-methyl] was “total loss of antiproliferative activity”.
Turning to “GLPVCGETCVGGTCNTPGCKCSWPVCTR↓N (head to tail) [cyclic reduced T20K]”, the “antiproliferative activity (Figure 1D)” value (tested concentration range up to 10 μM (∼29 μg/mL), mean ± SD of three biological replicates relative to stimulated control) was “lost activity”.
